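Each compound was tested at five concentrations against cells in 96-well plates for 48 hours. TGI is the concentration that stops growth completely.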
Tested on: SN12K1 renal
Test: DTP human tumour cell line panel, 48 h

Nc1ccc(N=Nc2ccc(/C=C/c3ccc(N=Nc4ccc(N)c5ccc(S(=O)(=O)O)cc45)cc3S(=O)(=O)O)c(S(=O)(=O)O)c2)c2cc(S(=O)(=O)O)ccc12
TGI: > 100 µM

Reference: PubChem BioAssay (NCI)
